Results on 1 substance are retold here after patent EP0346759A2, “Cholestadiene derivatives, process for their preparation, and their use as medicines with a HMG-CoA reductase-inhibiting activity” (HOECHST AKTIENGESELLSCHAFT, priority 1988, dated 1989).

This experiment deals with Cholesterin-Biosynthese. The experiment is described as follows: Inhibition of cholesterol biosynthesis in cell culture by 14C-precursor (14C sodium acetate) incorporation into cholesterol. It counts as cell-based. Conditions: HEP-G2-Zellen, 1 % DMSO. The source says:
Prüfung auf Cholesterin-Biosynthese-Hemmung In Zellkulturen durch ^14C-Präkursoreinbau In Cholesterin.
Monolayers von HEP G2-Zellen in lipoproteinfreiem Nährmedium wurden mit entsprechenden Konzentrationen der Prüfsubstanzen 1 Stunde vorinkubiert; nach Zugabe des ^14C-markierten Präkursors '^4C-Natriumacetat wurde die Inkubation für 3 Stunden fortgesetzt. Danach wurde ein Teil der Zellen bei vorheriger Zugabe eines internen Standards von ^3H-Cholesterin alkalisch verseift. Die Lipide der verseiften Zellen wurden mit Chloroform-Methanol extrahiert. Dieses Lipidgemisch wurde nach Zusatz von Träger-Cholesterin präparativ dünnschichtchromatographisch getrennt, die Cholesterin-Bande nach dem Sichtbarmachen mit Jod-Dämpfen isoliert und die aus dem ^14C-Präkursor gebildete Menge ^14C-Cholesterins szintigraphisch bestimmt. In einem aliquoten Teil der Zellen wurde Zellprotein bestimmt, sodaß die in der Zeiteinheit/mg Zellprotein aus ^14C-Präkursor gebildete Menge ^14C-Cholesterins berechnet werden kann. Zum Vergleich für die Hemmwirkung eines zugesetzten Prüfpräparates diente die Lösungsmittelkontrolle, sodaß direkt die Hemmung der Cholesterin-Biosynthese bei einer bestimmten molaren Konzentration des Prüfpräparates im Medium angegeben werden kann. In aliquoten Anteilen der Zellkultur wurde die Intaktheit der Zellkulturen und die fehlende Zellschädigung durch Präparate-Einwirkung morphologisch (Lichtmikroskop) beurteilt.
Cholesterol-Biosynthese-Hemmung Zellkultur: HEP-G2-Zellen Lösungsmittel-Endkonzentration: 1 % DMSO

As for “3ß-Hydroxy-chola-5,23t-dien-24-carbonsäure-methylester [Beispiel 9]”, the IC50 – broadly, the concentration needed to halve the response being measured – (Cholesterol-Biosynthese-Hemmung) is approximately 500 nM. The “Acetateinbau in Cholesterin im Vergleich zur Kontrolle” value by setting is: (Präparat-Konzentration 1,0 x 10^-6 Mol/1, 1 µM) 52%; (Präparat-Konzentration 1,0 x 10^-7 Mol/1, 0.1 µM) 56%; (Präparat-Konzentration 2,5 x 10^-4 Mol/1, 250 µM) 6%; (Präparat-Konzentration 2,5 x 10^-5 Mol/1, 25 µM) 17%.
